Data as given in patent US20230312556A1, “ARYLAMIDE COMPOUND, PHARMACEUTICAL COMPOSITION COMPRISING SAME, AND PREPARATION METHOD THEREFOR AND USE THEREOF” (SICHUAN KELUN-BIOTECH BIOPHARMACEUTICAL CO., LTD., priority 2020, published 2023).
Values belong to the compound of their own block, whether it stands above or below them.

Key:
[1] = tested on: human hepatocellular carcinoma cell HepG2 (NRAS-Q61K mutation); test: Cancer cell proliferation inhibition assay, HepG2; type: cell-based; conditions: 72 h incubation, Cell Titer Glo
Text: (§1) The inhibitory effects of the compounds of the present invention on cancer cell proliferation were further evaluated by testing the effects of the compounds of the present invention on the growth of cancer cells.
(§2) In this example, human melanoma cell A375 (BRAF-V600E mutation, purchased from the Cell Bank of the Chinese Academy of Sciences) and human hepatocellular carcinoma cell HepG2 (NRAS-Q61K mutation, purchased from ATCC, USA) were employed.
(§3) In this example, the test compounds at various concentrations (100000 nM, 30000 nM, 10000 nM, 3000 nM, 1000 nM, 300 nM, 100 nM, 30 nM, 10 nM) were added to the above cells, and the incubation was performed for 72 h. The inhibitory activity of the compounds was tested by measuring ATP in living cells using the Cell Titer Glo Kit (Promega).
(§4) The IC50 values of the compounds of the present invention for each tested cell were determined, and the test results are as follows: […]

[2] = molecular target: wild-type BRAF enzyme (Homo sapiens (Human), UniProt P15056); test: RAF inhibition assay (TB-PMAP2K1 kit), wild-type BRAF; type: biochemical; conditions: FLUORESCEIN-MAP2K1 substrate, 60 min reaction
Experimental: Assay protocol: the inhibitory effects of the compounds of the present invention on the wild-type BRAF enzyme, mutant CRAF enzyme (RAF1 Y340D and Y341D) and mutant BRAF enzyme (BRAF-V600E) activity were determined according to the instructions of the TB-PMAP2K1 (PSER217/221) kit (ThermoFisher). Different RAF enzymes and substrates (FLUORESCEIN-MAP2K1) were pre-incubated with test compounds at various concentrations at room temperature for 15 min, and then the adenosine triphosphate (ATP) was added to initiate the reaction. After incubation at room temperature for 60 min, EDTA and Tb-labeled anti-pMAP2K1 [pS217/221] antibody solutions were added, and incubation was performed at room temperature for 60 min before the detection of the fluorescence values of the compounds in each group. With the vehicle group (DMSO) as the negative control and the buffer group (without RAF enzyme) as the blank control, the relative inhibitory activity percentage (i.e., the inhibition rate) of a compound at different concentrations was calculated according to the following formula:
Relative inhibitory activity percentage=1−(Compound group at various concentrations−blank control)/(negative control−blank control)*100%
The relative inhibitory activity percentages of the compounds at different concentrations were plotted against the compound concentrations, the curve was fitted according to a four-parameter model, and the IC50 value was calculated according to the following formula:
y=min+(max−min)/(1+(x/IC50)^(−Hillslope))
wherein y is the relative inhibitory activity percentage, max and min are respectively the maximum and minimum values of the fitted curve, x is the logarithm concentration of the compound, and Hillslope is the slope of the curve.

[3] = tested on: human melanoma cell A375 (BRAF-V600E mutation); test: Cancer cell proliferation inhibition assay, A375; type: cell-based; conditions: A-375, 72 h incubation, Cell Titer Glo
Text: as §1, §2, §3, §4

[4] = Pharmacokinetic test in Beagle dogs; type: in vivo
Experimental: The compounds were administered to male Beagle dogs by gavage (PO) to investigate the pharmacokinetic profile.
Compound 1 of the present invention and HM95573 were administered via PO; the administration dosage was 2.5 mg/kg, and the solvent was a 20% aqueous solution of hydroxypropyl-β-cyclodextrin. Blood samples were collected before the administration (0 h) and at 0.25, 0.5, 1, 2, 4, 6, 8, 24, 48, and 72 hours after the administration, and 1 mL blood was collected from the limbs vein and placed in a K2-EDTA anticoagulation tube. After centrifugation at 4000 rpm for 5 min (4° C.), the plasma was separated and stored at −80° C. for testing. The plasma samples were processed by precipitating proteins, and then subjected to LC-MS/MS analysis. The pharmacokinetic parameters were calculated using the WinNonlin 6.3 software and employing a non-compartmental model, and the results are shown in Table 7.

[5] = Pharmacokinetic test in Balb/c mice; type: in vivo
Experimental: The compounds were administered to female Balb/c mice by gavage (PO) to investigate the pharmacokinetic profile.
Compound 1 of the present invention and HM95573 (prepared according to Example 116 in CN104039798B) were administered via PO; the administration dosage was 10 mg/kg, and the administration vehicle was a 20% aqueous solution of hydroxypropyl-β-cyclodextrin. Blood samples were collected before the administration (0 h) and at 0.25, 0.5, 1, 2, 4, 6, 8, 24, 48, and 72 h after the administration; 50-70 μL of blood was drawn from the orbit and spotted on Whatman 903 card, which was air-dried at room temperature for testing. After the testing, the samples were placed in a sealed dry box and stored at −80° C. (DBS samples). The DBS samples were punched with a 6 mm punch, then 80 μL of 50% acetonitrile-water was added and shaken (800 rpm, 10 min), followed by sonication for 10 min, then 350 μL of acetonitrile containing internal standard was added and shaken (700 rpm, 10 min). After sonication for 10 min, the samples were centrifuged at 4000 rpm and 4° C. for 10 min, and the supernatant was collected for LC-MS/MS analysis. The pharmacokinetic parameters were calculated using the WinNonlin 6.3 software and employing a non-compartmental model, and the results are shown in Table 6.

[6] = dog, male Beagle dogs, PO, 2.5 mg/kg, plasma
[7] = mouse, whole blood (dried blood spots), female Balb/c mice, PO, 10 mg/kg, DBS samples
[8] = male Beagle dogs, PO, 2.5 mg/kg, plasma
[9] = female Balb/c mice, PO, 10 mg/kg, DBS samples

Sequence of wild-type BRAF enzyme (P15056 whole entry): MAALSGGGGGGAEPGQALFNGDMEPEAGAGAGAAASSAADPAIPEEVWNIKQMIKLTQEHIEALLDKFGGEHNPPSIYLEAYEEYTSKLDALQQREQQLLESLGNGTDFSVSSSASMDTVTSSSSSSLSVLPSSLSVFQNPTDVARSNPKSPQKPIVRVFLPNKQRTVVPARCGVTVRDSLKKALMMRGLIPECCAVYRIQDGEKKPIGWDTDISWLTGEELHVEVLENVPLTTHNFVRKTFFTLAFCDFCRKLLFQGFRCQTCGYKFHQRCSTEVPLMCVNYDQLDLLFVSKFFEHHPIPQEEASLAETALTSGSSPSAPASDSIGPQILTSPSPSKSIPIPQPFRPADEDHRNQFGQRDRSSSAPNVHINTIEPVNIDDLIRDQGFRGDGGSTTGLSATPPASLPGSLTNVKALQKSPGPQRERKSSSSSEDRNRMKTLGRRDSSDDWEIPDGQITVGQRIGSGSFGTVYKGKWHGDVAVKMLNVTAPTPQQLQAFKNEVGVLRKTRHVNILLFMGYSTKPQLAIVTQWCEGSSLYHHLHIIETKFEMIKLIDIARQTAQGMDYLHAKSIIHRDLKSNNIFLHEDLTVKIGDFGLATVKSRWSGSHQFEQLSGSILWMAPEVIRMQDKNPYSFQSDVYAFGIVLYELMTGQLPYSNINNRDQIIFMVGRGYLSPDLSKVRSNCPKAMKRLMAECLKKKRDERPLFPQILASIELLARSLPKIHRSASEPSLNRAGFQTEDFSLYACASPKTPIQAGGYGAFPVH

Structure (SMILES): Cc1ccc2c(Nc3cccc(Cl)c3F)nccc2c1NC(=O)c1cccc2c(N)ncnc12 [Compound 1, 4-amino-N-(1-((3-chloro-2-fluorophenyl)amino)-6-methylisoquinolin-5-yl)quinazoline-8-carboxamide]
IC50 [1]: 71.3 ± 5.5 nM
IC50 [2]: 18.7 ± 2.71 nM
IC50 [3]: 29.3 ± 2.3 nM
AUC(0-t) [4, 6]: 31000 ± 4240 ng·h/mL
half-life [4, 6]: 15.4 ± 4.1 h
Cmax ([4]; dog, male Beagle dogs, PO, 2.5 mg/kg, plasma, read-out: Cmax): 1800 ± 127 ng/mL
Tmax ([4]; dog, male Beagle dogs, PO, 2.5 mg/kg, plasma, read-out: Tmax): 1 h
Conclusion on pharmacokinetics in dogs ([4]; dogs after PO administration): Conclusion: Compound 1 of the present invention has a high maximum plasma concentration, high exposure, long half-life and good overall PK properties in dogs after PO administration.
Conclusion on pharmacokinetics in mice ([5]; mice after PO administration): Conclusion: compound 1 of the present invention has a high maximum plasma concentration and a high exposure in mice after PO administration.
AUC(0-t) [5, 7]: 172000 ± 18300 ng·h/mL
half-life [5, 7]: 8.33 ± 0.95 h
Cmax ([5]; mouse, whole blood (dried blood spots), female Balb/c mice, PO, 10 mg/kg, DBS samples, read-out: Cmax): 8240 ± 586 ng/mL
Tmax ([5]; mouse, whole blood (dried blood spots), female Balb/c mice, PO, 10 mg/kg, DBS samples, read-out: Tmax): 1.67 ± 0.58 h

Structure (SMILES): Cc1ccc2c(Nc3cc(F)c(F)cc3F)nccc2c1NC(=O)c1cccc2c(N)ncnc12 [Compound 90, 4-amino-N-(6-methyl-1-((2,4,5-trifluorophenyl)amino)isoquinolin-5-yl)quinazoline-8-carboxamide]
IC50 [1]: 118 ± 12.6 nM
IC50 [2]: 26.5 ± 2.18 nM
IC50 [3]: 74 ± 6.3 nM

Structure (SMILES): Nc1ncnc2c(C(=O)Nc3c(F)ccc4c(Nc5cccc(Cl)c5F)nccc34)cccc12 [Compound 92, 4-amino-N-(1-((3-chloro-2-fluorophenyl)amino)-6-fluoroisoquinolin-5-yl)quinazoline-8-carboxamide]
IC50 [1]: 49.8 ± 4.3 nM
IC50 [2]: 21.8 ± 3.89 nM
IC50 [3]: 128 ± 8 nM

Structure (SMILES): Cc1ccc2c(Nc3cccc(Cl)c3F)nccc2c1NC(=O)c1ccc(F)c2c(N)ncnc12 [Compound 93, 4-amino-N-(1-((3-chloro-2-fluorophenyl)amino)-6-methylisoquinolin-5-yl)-5-fluoroquinazoline-8-carboxamide]
IC50 [1]: 62.9 ± 11.3 nM
IC50 [2]: 13.5 ± 1.02 nM
IC50 [3]: 61.7 ± 3.6 nM

Structure (SMILES): Cc1ccc2c(Nc3c(F)cc(F)cc3F)nccc2c1NC(=O)c1cccc2c(N)ncnc12 [Compound 94, 4-amino-N-(6-methyl-1-((2,4,6-trifluorophenyl)amino)isoquinolin-5-yl)quinazoline-8-carboxamide]
IC50 [1]: 47.4 ± 6.5 nM
IC50 [2]: 10.3 ± 1 nM
IC50 [3]: 58.8 ± 5.6 nM

AUClast [4, 8]: 13080 ± 6254 ng·h/mL
Cmax [4, 8]: 989 ± 411 ng/mL
T1/2 [4, 8]: 8.43 ± 1.76 h
Tmax [4, 8]: 1.33 ± 0.58 h
AUClast [5, 9]: 110760 ± 9636 ng·h/mL
Cmax [5, 9]: 4710 ± 806 ng/mL
T1/2 [5, 9]: 9.57 ± 0.58 h
Tmax [5, 9]: 1.67 ± 0.58 h
Structure (SMILES): Cc1ccc2c(Nc3cccc(Cl)c3F)nccc2c1NC(=O)c1csc2c(N)ncnc12 [HM95573, reference compound]
